Results: patent US20100272797A1, “Pharmaceutical Composition for Treating Hepatitis C Virus Infection Comprising HMG-COA Reductase Inhibitor and Bile Acid” (HANALL PHARMACEUTICAL COMPANY, LTD., priority 2007, published 2010)

What was measured:
EMC virus = test: Test Example 1: inhibitory effects on EMCV in A549 cells, MTT assay; format: cell-based; settings: A549 cells infected with EMC virus, IFN 20 IU/ml, fluvastatin 5 μM, UDCA 61.9 μM as named
[1] = human, in vivo; cited from earlier work
[2] = in vivo, absorbed by passive diffusion; cited from earlier work

| Compound | Average (MTT absorbance) (EMC virus; absorbance 550-600 nm, N 10) | Survival rate (antivirus activity) (EMC virus; vehicle = 0.0) | hepatitis patients with continuous increase in transaminase levels [1] | share of such patients with increase in blood transaminase levels within 12 weeks after administration [1] | transaminase level elevation relative to upper limit of normal [1] | absorbed drug excreted in the form of bile [2] |
| --- | --- | --- | --- | --- | --- | --- |
| CC(C)n1c(/C=C/C(O)CC(O)CC(=O)O)c(-c2ccc(F)cc2)c2ccccc21 (racemic) [Fluvastatin, [R,S-(E)]-(±)-7-[3-(4-fluorophenyl)-1-(1-methylethyl)-1H-indol-2-yl]-3,5-dihydroxy-6-heptanoate] | 0.8638 | 1.7 | about 1.1% | At least 90% | at least 3 times the upper limit of normal |  |
| C[C@H](CCC(=O)O)[C@H]1CC[C@H]2[C@@H]3[C@@H](O)C[C@@H]4C[C@H](O)CC[C@]4(C)[C@H]3CC[C@]12C [ursodeoxycholic acid] |  |  |  |  |  | about 50% |
